For 11 compounds, IC50 results are on record in US8802665B2, “Pyrrolidine derivatives” (Hoffman-La Roche Inc., priority 2012, dated 2014).

pIC50: −log10 of the molar value.

By pIC50 is commonly meant the negative decadic logarithm of the IC50, by convention in mol/L.

Chain of human Cat S (P25774 115-331): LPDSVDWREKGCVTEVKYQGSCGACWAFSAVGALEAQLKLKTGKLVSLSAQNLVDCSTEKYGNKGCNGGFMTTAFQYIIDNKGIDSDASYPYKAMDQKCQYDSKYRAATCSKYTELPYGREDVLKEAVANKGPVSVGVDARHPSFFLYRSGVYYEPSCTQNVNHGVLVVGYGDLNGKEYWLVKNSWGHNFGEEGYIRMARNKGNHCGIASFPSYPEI

The target of the test is human Cat S (Homo sapiens (Human), UniProt P25774). The test can be described thus: Cathepsin enzyme inhibition assay (fluorogenic peptide substrate cleavage). The format is biochemical. To be noted: human Cathepsin S 1 nM, substrate Z-Val-Val-Arg-AMC 20 μM, pH 6.5; read-out: Ic50 CatS: human. The protocol:
Cathepsin Enzyme Inhibition Assay
Enzyme activity is measured by observing the increase in fluorescence intensity caused by cleavage of a peptide substrate containing a fluorophore whose emission is quenched in the intact peptide. • Assay buffer: 100 mM potassium phosphate pH 6.5, EDTA-Na 5 mM, Triton X-100 0.001%, DTT 5 mM. • Enzymes (all at 1 nM): human and mouse Cathepsin S, Cat K, Cat B, Cat L. • Substrate (20 μM): Z-Val-Val-Arg-AMC, except for Cat K which uses Z-Leu-Arg-AMC (both from Bachem). • Z=Benzyloxycarbonyl. • AMC=7-Amino-4-Methyl-Coumarin. • DTT=dithiothreitol. • Final volume: 100 μL. • Excitation 360 nm, Emission 465 nm.
Enzyme is added to the substance dilutions in 96-well microtitre plates and the reaction is started with substrate. Fluorescence emission is measured over 20 minutes, during which time a linear increase is observed in the absence of inhibitor. IC50 are calculated by standard methods.
Inhibition of human Cat S, mouse Cat S, human Cat K, human Cat B, human Cat L and mouse Cat L have been measured separately. The results obtained for human Cat S for representative compounds of the invention are expressed in the following table in μM.
With `CC1CCN(C2(C(=O)N3C[C@H](S(=O)(=O)c4ccccc4Cl)C[C@H]3C(=O)NC3(C#N)CC3)CC2)CC1` [Example 38, (2S,4R)-4-(2-chlorophenylsulfonyl)-N-(1-cyanocyclopropyl)-1-(1-(4-methylpiperidin-1-yl)cyclopropanecarbonyl)pyrrolidine-2-carboxamide], the negative logarithm of the IC50 (pIC50) was 9.30.

On to `CS(=O)(=O)N1CCN(C2(C(=O)N3C[C@H](S(=O)(=O)c4ccccc4Cl)C[C@H]3C(=O)NC3(C#N)CC3)CC2)CC1` [Example 32, (2S,4R)-4-(2-Chlorophenylsulfonyl)-N-(1-cyanocyclopropyl)-1-(1-(4-(methylsulfonyl)piperazin-1-yl)cyclopropanecarbonyl)pyrrolidine-2-carboxamide], for which the pIC50 is 8.60.

`CCOC(=O)N1CCC(N2CCC2C(=O)N2C[C@H](Sc3ccc(F)cc3Cl)C[C@H]2C(=O)NC2(C#N)CC2)CC1` (some centres unmarked) [Example 13]: the pIC50 is 8.17.

As for `CC(=O)N1CCC(N2CCC2C(=O)N2C[C@H](S(=O)(=O)c3ccccc3Cl)C[C@H]2C(=O)NC2(C#N)CC2)CC1` (stereo partly drawn) [Example 6, (2S,4R)-1-(1-(1-Acetylpiperidin-4-yl)azetidine-2-carbonyl)-4-(2-chlorophenylsulfonyl)-N-(1-cyanocyclopropyl)pyrrolidine-2-carboxamide], the pIC50 was 8.89.

Turning to `N#CC1(NC(=O)[C@@H]2C[C@@H](S(=O)(=O)c3ccccc3OC(F)(F)F)CN2C(=O)C2(N3CCCCC3)CC2)CC1` [Example 45, (2S,4R)-N-(1-Cyanocyclopropyl)-1-(1-(piperidin-1-yl)cyclopropanecarbonyl)-4-(2-(trifluoromethoxy)phenylsulfonyl)pyrrolidine-2-carboxamide], the pIC50 was 9.10.

Turning to `N#CC1(NC(=O)[C@@H]2C[C@@H](S(=O)(=O)c3ccccc3Cl)CN2C(=O)C2(N3CCC(c4ccccc4)CC3)CC2)CC1` [Example 37, (2S,4R)-4-(2-chlorophenylsulfonyl)-N-(1-cyanocyclopropyl)-1-(1-(4-phenylpiperidin-1-yl)cyclopropanecarbonyl)pyrrolidine-2-carboxamide], the pIC50 is 8.92.

Turning to `CC1CCCN(C2(C(=O)N3C[C@H](S(=O)(=O)c4ccccc4Cl)C[C@H]3C(=O)NC3(C#N)CC3)CC2)C1` (stereo partly drawn) [Example 26, (2S,4R)-4-(2-Chlorophenylsulfonyl)-N-(1-cyanocyclopropyl)-1-(1-(3-methylpiperidin-1-yl)cyclopropanecarbonyl)pyrrolidine-2-carboxamide], the pIC50 was 9.40.

As to `N#CC1(NC(=O)[C@@H]2C[C@@H](S(=O)(=O)c3ccccc3Cl)CN2C(=O)C2(N3CCCCCC3)CC2)CC1` [Example 40, (2S,4R)-1-(1-(Azepan-1-yl)cyclopropanecarbonyl)-4-(2-chlorophenylsulfonyl)-N-(1-cyanocyclopropyl)pyrrolidine-2-carboxamide], the negative-log IC50 (pIC50) is 9.30.

Turning to `CCOC(=O)N1CCC(N2CCC2C(=O)N2C[C@H](S(=O)(=O)c3ccc(F)cc3Cl)C[C@H]2C(=O)NC2(C#N)CC2)CC1` (stereo partly drawn) [Example 14, Ethyl 4-(2-((2S,4R)-4-(2-chloro-4-fluorophenylsulfonyl)-2-(1-cyanocyclopropylcarbamoyl)pyrrolidine-1-carbonyl)azetidin-1-yl)piperidine-1-carboxylate], the pIC50 was 8.82.

On to `CS(=O)(=O)N1CCC(N2CCC2C(=O)N2C[C@H](S(=O)(=O)c3ccccc3Cl)C[C@H]2C(=O)NC2(C#N)CC2)CC1` (stereo partly drawn) [Example 12, (2S,4R)-4-(2-Chlorophenylsulfonyl)-N-(1-cyanocyclopropyl)-1-(1-(1-(methylsulfonyl)piperidin-4-yl)azetidine-2-carbonyl)pyrrolidine-2-carboxamide], for which the pIC50 is 8.57.

For the compound `CC(C)(C)OC(=O)N1CCN(C2(C(=O)N3C[C@H](S(=O)(=O)c4ccccc4Cl)C[C@H]3C(=O)NC3(C#N)CC3)CC2)CC1` [Example 29, tert-Butyl 4-(1-((2S,4R)-4-(2-chlorophenylsulfonyl)-2-(1-cyanocyclopropylcarbamoyl)pyrrolidine-1-carbonyl)cyclopropyl)piperazine-1-carboxylate], the pIC50 was 8.64.
